The record followed here is ChEMBL document CHEMBL1201862, “PubChem BioAssay data set” (2004).

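These data come from cells grown in 96-well plates and exposed to compound for 48 hours at five concentrations. GI50: concentration for 50% inhibition of growth.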 Active and inactive are the calls of the source. Cut-off read from the data, not from the text of the source: active = GI50 up to about 1.1 µM and inactive = higher.

Test systems include A549; SK-OV-3; SW-620; LOX IMVI; SF-539; HCT-15; NCI-H522; NCI/ADR-RES; UACC-62; COLO 205; M14; HCT-116; SK-MEL-28; ACHN; NCI-H460; SNB-19; RXF 393; OVCAR-5; OVCAR-3; SNB-75.
Experiment in all cases: NCI anticancer screen, dose series, 48 h

Take `OC(c1cc(C(F)(F)F)nc2c(Cl)cc(Cl)cc12)C1CCCCN1` (stereo not given): the GI50 is 20.5 µM (inactive) in the assay on A549; 12.3 µM (inactive) in the assay with SK-OV-3; 5.89 µM (inactive) in the assay on SW-620; 2.93 µM (inactive) in the assay with LOX IMVI; 14 µM (inactive) with SF-539; 13 µM in the assay on HCT-15. Further, the GI50 in the assay with NCI-H522 is 7.53 µM (inactive); in the assay on NCI/ADR-RES, 10.5 µM (inactive); in the assay with UACC-62, > 32.6 µM (inactive); in the assay on COLO 205, 3.22 µM (inactive); with M14, > 25.1 µM (inactive); with HCT-116, 13.6 µM (inactive). The GI50 in the assay on SK-MEL-28 was 15.3 µM (inactive); with ACHN it was > 24.4 µM (inactive); in the assay with NCI-H460, 6.82 µM (inactive); in the assay with SNB-19, > 36.5 µM (inactive); in the assay on RXF 393, 4.8 µM (inactive); in the assay with OVCAR-5 it was > 35 µM (inactive). Moreover, the results for the GI50 in the assay with OVCAR-3 and in the assay with SNB-75 were 3.53 µM (inactive) and 11.8 µM (inactive), respectively.
In the case of `COC(=O)N/N=C(/CC1(O)C(=O)Nc2ccc([N+](=O)[O-])cc21)c1ccccc1` (stereo not given), the GI50 was 63.1 µM (inactive) in the assay on A549; 66.4 µM (inactive) with SK-OV-3; 37.8 µM (inactive) in the assay with SW-620; 18.9 µM (inactive) with LOX IMVI; 38 µM (inactive) in the assay with SF-539; over 51.2 µM with HCT-15. Besides, the GI50 in the assay on NCI-H522 is 43.9 µM (inactive); with NCI/ADR-RES, 21.8 µM (inactive); in the assay on UACC-62, 24.7 µM (inactive); in the assay with COLO 205 it was 50.7 µM (inactive); with M14, 34 µM (inactive); in the assay on HCT-116 it was 24.1 µM (inactive). Besides, the GI50 is 23.2 µM (inactive) in the assay on SK-MEL-28; 33.3 µM (inactive) with ACHN; 63.8 µM (inactive) in the assay with NCI-H460; 38.9 µM (inactive) in the assay on SNB-19; 22 µM (inactive) in the assay with RXF 393; > 79.6 µM (inactive) in the assay with OVCAR-5. The GI50 in the assay on OVCAR-3 was 44.3 µM (inactive); in the assay with SNB-75 it was 23.9 µM (inactive).
As to `COc1ccc(C2C(=O)c3ccc(OC)cc3OC2c2cccnc2)cc1` (stereo not given), the GI50 was > 100 µM (inactive) in the assay on A549; 43.2 µM (inactive) in the assay with SK-OV-3; > 100 µM (inactive) with SW-620; > 100 µM (inactive) in the assay with LOX IMVI; > 100 µM (inactive) in the assay on SF-539; over 100 µM in the assay on HCT-15. The GI50 in the assay on NCI-H522, in the assay with NCI/ADR-RES, with UACC-62, in the assay with COLO 205, in the assay on M14 and in the assay on HCT-116 was > 100 µM (inactive) throughout. Moreover, the GI50 with SK-MEL-28 is > 100 µM (inactive); with ACHN it was > 100 µM (inactive); in the assay with NCI-H460, > 100 µM (inactive); in the assay on SNB-19, 92.7 µM (inactive); in the assay on RXF 393, 86.3 µM (inactive); with OVCAR-5 it was > 100 µM (inactive). In addition, the GI50 with OVCAR-3 was > 100 µM (inactive); in the assay on SNB-75, 34.8 µM (inactive).
